The text below walks through data of PMC8766551, “Amino acid residue at position 188 determines the UV-sensitive bistable property of vertebrate non-visual opsin Opn5” (Communications Biology, 2022).

Changes are numbered by the printed parent chain.

Assay type in all cases: binding
In experiment [1] the target is T1, Xenopus tropicalis Opn5m (Xenopus tropicalis, UniProt A0A8J0QRX8, W163F).
T1 construct: gene opn5; 21 residues truncated from the C-terminus; expressed in HEK293S cells; purified in DDM on Rho1D4-agarose
T1 sequence (A0A8J0QRX8 1-322 W163F): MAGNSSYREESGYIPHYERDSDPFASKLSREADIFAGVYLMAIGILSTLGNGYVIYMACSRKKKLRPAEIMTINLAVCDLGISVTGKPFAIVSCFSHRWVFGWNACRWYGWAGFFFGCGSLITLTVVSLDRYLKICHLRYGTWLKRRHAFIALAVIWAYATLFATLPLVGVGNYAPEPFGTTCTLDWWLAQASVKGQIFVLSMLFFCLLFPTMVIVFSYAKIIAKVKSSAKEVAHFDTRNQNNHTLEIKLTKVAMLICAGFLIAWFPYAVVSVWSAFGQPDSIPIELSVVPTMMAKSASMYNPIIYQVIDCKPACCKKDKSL
Briefly: reconstitution, purification, HPLC of retinal oximes. As to conditions: covalent; 40 uM 11-cis retinal added to collected cell membranes, 4 °C, 24 h, dark; pH 6.5; isomer composition, no affinity.

In experiment [2] the target is T2, Xenopus tropicalis Opn5m (Xenopus tropicalis, UniProt A0A8J0QRX8).
T2 construct: gene opn5; 21 residues truncated from the C-terminus; expressed in HEK293S cells; purified in DDM on Rho1D4-agarose
T2 sequence (A0A8J0QRX8 1-322): T1 sequence (A0A8J0QRX8 1-322 W163F) with F163W
The experiment is described as above. As to conditions: covalent; 40 uM 11-cis retinal added to collected cell membranes, 4 °C, 24 h, dark; pH 6.5; isomer composition, no affinity.

The target in experiment [3] is T3, Xenopus tropicalis Opn5m (Xenopus tropicalis, UniProt A0A8J0QRX8, L208F).
T3 construct: gene opn5; 21 residues truncated from the C-terminus; expressed in HEK293S cells; purified in DDM on Rho1D4-agarose
T3 sequence (A0A8J0QRX8 1-322 L208F): T1 sequence (A0A8J0QRX8 1-322 W163F) with F163W, L208F
The experiment is described as above. The following applies: covalent; 40 uM 11-cis retinal added to collected cell membranes, 4 °C, 24 h, dark; pH 6.5; isomer composition, no affinity.

Experiment [4] has as its target T2, Xenopus tropicalis Opn5m. Briefly: absorption spectrum of purified reconstituted pigment, difference spectrum. As to conditions: covalent; all-trans retinal added, dark versus yellow light (>500 nm), 0 °C, pH 6.5; spectral value, no affinity.
In experiment [5] the target is T4, Xenopus tropicalis Opn5m (Xenopus tropicalis, UniProt A0A8J0QRX8, T184N).
T4 construct: gene opn5; 21 residues truncated from the C-terminus; expressed in HEK293S cells; purified in DDM on Rho1D4-agarose
T4 sequence (A0A8J0QRX8 1-322 T184N): T1 sequence (A0A8J0QRX8 1-322 W163F) with F163W, T184N
The description is as above. The following applies: covalent; all-trans retinal added, dark versus yellow light (>500 nm), 0 °C, pH 6.5; spectral value, no affinity.

In experiment [6] the target is T5, Xenopus tropicalis Opn5m (Xenopus tropicalis, UniProt A0A8J0QRX8, T184S).
T5 construct: gene opn5; 21 residues truncated from the C-terminus; expressed in HEK293S cells; purified in DDM on Rho1D4-agarose
T5 sequence (A0A8J0QRX8 1-322 T184S): T1 sequence (A0A8J0QRX8 1-322 W163F) with F163W, T184S
The description is as above. As to conditions: covalent; all-trans retinal added, dark versus yellow light (>500 nm), 0 °C, pH 6.5; spectral value, no affinity.

The target in experiment [7] is T3, Xenopus tropicalis Opn5m. Described as above. As to conditions: covalent; 40 uM all-trans retinal added to collected cell membranes, dark versus yellow light (>500 nm), 0 °C, pH 6.5; spectral value, no affinity.
Experiment [8] has as its target T6, Xenopus tropicalis Opn5m (Xenopus tropicalis, UniProt A0A8J0QRX8, T184G).
T6 construct: gene opn5; 21 residues truncated from the C-terminus; expressed in HEK293S cells; purified in DDM on Rho1D4-agarose
T6 sequence (A0A8J0QRX8 1-322 T184G): T1 sequence (A0A8J0QRX8 1-322 W163F) with F163W, T184G
The description is as above. As to conditions: covalent; all-trans retinal added, dark versus yellow light (>500 nm), 0 °C, pH 6.5; spectral value, no affinity.

The target in experiment [9] is T7, Xenopus tropicalis Opn5m (Xenopus tropicalis, UniProt A0A8J0QRX8, T184C).
T7 construct: gene opn5; 21 residues truncated from the C-terminus; expressed in HEK293S cells; purified in DDM on Rho1D4-agarose
T7 sequence (A0A8J0QRX8 1-322 T184C): T1 sequence (A0A8J0QRX8 1-322 W163F) with F163W, T184C
The experiment is described as above. As to conditions: covalent; all-trans retinal added, dark versus yellow light (>500 nm), 0 °C, pH 6.5; spectral value, no affinity.

The target of experiment [10] is T8, Xenopus tropicalis Opn5m (Xenopus tropicalis, UniProt A0A8J0QRX8, T184Q).
T8 construct: gene opn5; 21 residues truncated from the C-terminus; expressed in HEK293S cells; purified in DDM on Rho1D4-agarose
T8 sequence (A0A8J0QRX8 1-322 T184Q): T1 sequence (A0A8J0QRX8 1-322 W163F) with F163W, T184Q
The description is as above. As to conditions: covalent; all-trans retinal added, dark versus yellow light (>500 nm), 0 °C, pH 6.5; spectral value, no affinity.

In experiment [11] the target is T9, Xenopus tropicalis Opn5m (Xenopus tropicalis, UniProt A0A8J0QRX8, T184A).
T9 construct: gene opn5; 21 residues truncated from the C-terminus; expressed in HEK293S cells; purified in DDM on Rho1D4-agarose
T9 sequence (A0A8J0QRX8 1-322 T184A): T1 sequence (A0A8J0QRX8 1-322 W163F) with F163W, T184A
Described as above. As to conditions: covalent; all-trans retinal added, dark versus yellow light (>500 nm), 0 °C, pH 6.5; spectral value, no affinity.

Experiment [12] has as its target T10, Xenopus tropicalis Opn5m (Xenopus tropicalis, UniProt A0A8J0QRX8, T184M).
T10 construct: gene opn5; 21 residues truncated from the C-terminus; expressed in HEK293S cells; purified in DDM on Rho1D4-agarose
T10 sequence (A0A8J0QRX8 1-322 T184M): T1 sequence (A0A8J0QRX8 1-322 W163F) with F163W, T184M
Described as above. The following applies: covalent; all-trans retinal added, dark versus yellow light (>500 nm), 0 °C, pH 6.5; spectral value, no affinity.

In the case of `CC1=C(/C=C/C(C)=C/C=C\C(C)=C\C=O)C(C)(C)CCC1` [11-cis retinal], the “% of bound retinal as 11-cis isomer” value is recorded as 84% on Xenopus tropicalis Opn5m [1], 91% on Xenopus tropicalis Opn5m [2] and 88% on Xenopus tropicalis Opn5m [3].
On to `CC1=C(/C=C/C(C)=C/C=C/C(C)=C/C=O)C(C)(C)CCC1` [all-trans retinal], for which the λmax at Xenopus tropicalis Opn5m [4] is 474 nm; at Xenopus tropicalis Opn5m [5], 460 nm; on Xenopus tropicalis Opn5m [6] it was 478 nm; at Xenopus tropicalis Opn5m [7], 475 nm; on Xenopus tropicalis Opn5m [8] it was 477 nm; on Xenopus tropicalis Opn5m [9], 470 nm. For the same compound, the values for the λmax at Xenopus tropicalis Opn5m [10], at Xenopus tropicalis Opn5m [11] and at Xenopus tropicalis Opn5m [12] were 483 nm, 481 nm and 467 nm, respectively.
